{"source": "patent US8198273B2", "about": "“Compounds and methods for kinase modulation, and indications therefor” (Plexxikon Inc., priority 2009, dated 2012)", "key": {"[1]": {"system": "A375 melanoma cells (B-Raf V600E)", "experiment": "A375 cell growth inhibition (ATPlite)", "type": "cell-based", "conditions": "Homo sapiens, A-375, 72 h; A375, 3 days incubation", "procedure,_shortened": "(§1)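 ATPlite luminescence, taken as a cell-number measure, gave IC50 values after a 3-day 37° C, 5% CO2 incubation. Compounds were tested as 8-point threefold titrations, highest final concentration 10 μM, added to cells seeded the day before.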"}, "B-Raf": {"target": "B-Raf (Homo sapiens, UniProt P15056)", "sequence (P15056 whole entry)": "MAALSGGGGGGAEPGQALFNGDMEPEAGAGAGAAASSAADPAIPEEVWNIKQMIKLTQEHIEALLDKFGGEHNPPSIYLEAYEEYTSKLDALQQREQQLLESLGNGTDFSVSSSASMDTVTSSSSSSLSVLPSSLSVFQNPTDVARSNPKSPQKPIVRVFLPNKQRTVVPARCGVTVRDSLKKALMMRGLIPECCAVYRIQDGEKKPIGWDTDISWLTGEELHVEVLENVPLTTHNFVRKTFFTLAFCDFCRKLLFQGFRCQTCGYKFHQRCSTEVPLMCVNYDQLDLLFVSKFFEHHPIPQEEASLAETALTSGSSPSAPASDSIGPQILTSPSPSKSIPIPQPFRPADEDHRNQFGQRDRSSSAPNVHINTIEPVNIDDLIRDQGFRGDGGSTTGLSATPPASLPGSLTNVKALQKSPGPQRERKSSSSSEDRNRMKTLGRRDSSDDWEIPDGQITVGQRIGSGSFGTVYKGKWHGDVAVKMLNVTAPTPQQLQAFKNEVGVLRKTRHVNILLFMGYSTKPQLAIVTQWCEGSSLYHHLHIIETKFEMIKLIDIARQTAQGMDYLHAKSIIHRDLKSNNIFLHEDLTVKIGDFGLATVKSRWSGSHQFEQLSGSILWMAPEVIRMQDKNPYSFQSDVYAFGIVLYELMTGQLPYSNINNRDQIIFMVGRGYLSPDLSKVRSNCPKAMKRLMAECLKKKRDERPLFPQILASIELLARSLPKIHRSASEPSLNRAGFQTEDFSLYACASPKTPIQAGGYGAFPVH", "experiment": "B-Raf biochemical kinase inhibition (AlphaScreen, biotin-MEK1 substrate)", "conditions": "100 μM ATP", "procedure,_shortened": "(§2)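 Eight-point compound series (made from a 0.1 mM DMSO stock) tested against each Raf enzyme with biotin-MEK1 substrate and 100 μM final ATP.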"}, "[2]": {"system": "COLO205 colon adenocarcinoma cells (B-Raf V600E)", "experiment": "COLO205 cell growth inhibition (ATPlite)", "type": "cell-based", "conditions": "Homo sapiens, COLO 205, 72 h; COLO205, 3 days incubation", "procedure,_shortened": "as §1"}, "B-Raf V600E": {"target": "B-Raf V600E (Homo sapiens, UniProt P15056, V600E)", "sequence (P15056 whole entry V600E)": "as the sequence (P15056 whole entry) above, with V600E counted along it", "experiment": "B-Raf V600E biochemical kinase inhibition (AlphaScreen, biotin-MEK1 substrate)", "conditions": "100 μM ATP", "procedure,_shortened": "as §2"}, "[3]": {"system": "SW620 colon adenocarcinoma cells (wild-type B-RAF)", "experiment": "SW620 cell growth inhibition (ATPlite)", "type": "cell-based", "conditions": "Homo sapiens, SW-620, 72 h; SW620, 3 days incubation", "procedure,_shortened": "as §1"}, "CYP3A4(BFC)": {"target": "CYP3A4(BFC) (Homo sapiens, UniProt P08684)", "sequence (P08684 whole entry)": "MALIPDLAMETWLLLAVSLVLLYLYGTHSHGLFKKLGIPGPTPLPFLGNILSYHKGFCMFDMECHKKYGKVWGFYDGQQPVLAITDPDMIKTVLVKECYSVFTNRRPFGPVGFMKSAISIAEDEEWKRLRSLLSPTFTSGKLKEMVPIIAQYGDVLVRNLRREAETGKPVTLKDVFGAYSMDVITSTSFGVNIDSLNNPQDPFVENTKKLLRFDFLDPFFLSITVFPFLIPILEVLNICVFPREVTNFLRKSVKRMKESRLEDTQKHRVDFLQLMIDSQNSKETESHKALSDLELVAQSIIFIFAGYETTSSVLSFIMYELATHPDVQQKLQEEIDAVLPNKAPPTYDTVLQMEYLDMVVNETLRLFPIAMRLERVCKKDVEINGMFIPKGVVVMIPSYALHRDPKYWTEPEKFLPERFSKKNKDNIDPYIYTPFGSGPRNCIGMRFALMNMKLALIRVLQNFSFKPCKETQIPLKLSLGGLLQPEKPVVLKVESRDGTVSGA", "experiment": "CYP3A4(BFC) inhibition (fluorescent substrate)", "type": "in vitro ADME", "conditions": "read-out: Cyp IC50 3A4(BFC)", "procedure,_shortened": "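Compound, from a 100 mM DMSO stock and diluted 1:1 over 10 points in co-factor mix, was incubated at 37° C with enzyme and a known substrate. Decrease in fluorescent product against concentration gave the IC50.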"}}, "note": "pIC50: −log10 of the molar value.", "data": [{"smiles": "CCCS(=O)(=O)Nc1ccc(F)c(C(=O)c2c[nH]c3ncc(-c4ccc(N(C)C)nc4)cc23)c1F", "note": "[P-2229, Propane-1-sulfonic acid {3-[5-(6-dimethylamino-pyridin-3-yl)-1H-pyrrolo[2,3-b]pyridine-3-carbonyl]-2,4-difluoro-phenyl}-amide]", "values": [{"measurement": "pIC50", "setting": "[1]", "value": "> 7.00"}, {"measurement": "pIC50", "setting": "B-Raf", "value": "> 7.00"}, {"measurement": "pIC50", "setting": "[2]", "value": "> 7.00"}, {"measurement": "pIC50", "setting": "B-Raf V600E", "value": "> 7.00"}, {"measurement": "pIC50", "setting": "[3]", "value": "< 5.00"}, {"measurement": "pIC50", "setting": "CYP3A4(BFC)", "value": "< 5.00"}]}]}
